Measured values published in ChEMBL document CHEMBL3774310, “Discovery of antitumor anthra[2,3-b]furan-3-carboxamides: Optimization of synthesis and evaluation of antitumor properties” (Eur J Med Chem, 2016).
pIC50: −log10 of the molar value. Active and inactive are the calls of the source. No cut-off for these calls is given here.

Tests used:
[1] = Cell cycle arrest in human HCT116 cells assessed as decrease in S phase at 1 uM after 24 hrs; format: functional, cell-based; conditions: HCT-116
[2] = target: T1, DNA topoisomerase 1 (Homo sapiens) (UniProt P11387); test: Inhibition of topoisomerase 1 (unknown origin) assessed as attenuation of enzyme-mediated relaxation of supercoiled pBR322 DNA up to 1 uM after 30 mins by agarose gel electrophoresis
T1 sequence (whole entry): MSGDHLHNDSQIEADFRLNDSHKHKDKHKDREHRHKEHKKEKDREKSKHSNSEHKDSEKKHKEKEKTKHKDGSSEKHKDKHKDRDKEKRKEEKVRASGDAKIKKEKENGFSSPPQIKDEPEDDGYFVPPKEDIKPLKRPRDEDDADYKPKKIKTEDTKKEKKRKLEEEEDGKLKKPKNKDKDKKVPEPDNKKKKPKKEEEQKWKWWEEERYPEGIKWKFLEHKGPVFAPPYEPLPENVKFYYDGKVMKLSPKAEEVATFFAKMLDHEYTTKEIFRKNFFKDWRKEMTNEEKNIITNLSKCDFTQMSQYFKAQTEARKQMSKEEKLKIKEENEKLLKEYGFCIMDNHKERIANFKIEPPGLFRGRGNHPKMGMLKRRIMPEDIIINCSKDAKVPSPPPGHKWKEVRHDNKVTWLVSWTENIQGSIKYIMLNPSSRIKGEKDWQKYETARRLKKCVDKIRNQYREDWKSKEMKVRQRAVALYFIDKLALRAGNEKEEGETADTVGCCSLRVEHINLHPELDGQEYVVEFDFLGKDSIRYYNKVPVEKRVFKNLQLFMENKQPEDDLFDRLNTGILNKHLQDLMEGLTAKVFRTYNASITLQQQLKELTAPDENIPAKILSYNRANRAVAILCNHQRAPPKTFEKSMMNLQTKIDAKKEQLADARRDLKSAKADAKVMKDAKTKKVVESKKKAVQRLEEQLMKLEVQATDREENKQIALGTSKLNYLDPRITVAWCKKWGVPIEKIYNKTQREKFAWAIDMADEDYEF

[3] = tested on: HCT-116; test: Induction of apoptosis in human HCT116 cells assessed as early apoptotic cells at 1 uM after 48 hrs by Annexin V-FITC/propidium iodide staining based assay (reference value: 2 +/- 1%); format: functional
[4] = tested on: P388; test: Antitumor activity against mouse P388 cells transplanted in DBA2/BDF1 mouse assessed as mean life span at 30 mg/kg, ip dosed daily for 5 days relative to control; format: functional
[5] = Cell cycle arrest in human HCT116 cells assessed as decrease in G1 phase at 1 uM after 24 hrs; format: functional, cell-based; conditions: HCT-116
[6] = tested on: K562; test: Binding affinity to P-gp in human K562 cells assessed as drug accumulation at 1 uM incubated for 1 to 24 hrs by flow cytometry; format: cell-based
[7] = target: DNA topoisomerase 2-alpha (Homo sapiens) (UniProt P11388); test: Inhibition of human topoisomerase 2-alpha assessed as attenuation of enzyme-mediated relaxation of supercoiled pBR322 DNA at 40 uM after 30 mins by agarose gel electrophoresis
[8] = tested on: HCT-116; test: Induction of apoptosis in human HCT116 cells assessed as early apoptotic cells at 1 uM after 24 hrs by Annexin V-FITC/propidium iodide staining based assay (reference value: 2 +/- 1%); format: functional
[9] = Cell cycle arrest in p53 knockout human HCT116 cells assessed as decrease in G1 phase at 1 uM after 24 hrs; format: functional, cell-based; conditions: HCT-116
[10] = tested on: K562/4; test: Binding affinity to P-gp in human K562/4 cells assessed as drug accumulation at 1 uM incubated for 1 to 24 hrs by flow cytometry; format: cell-based
[11] = Antiproliferative activity against human K562/4 cells after 72 hrs by MTT assay; conditions: K562/4, 72 h
[12] = Cell cycle arrest in p53 knockout human HCT116 cells assessed as decrease in S phase at 1 uM after 24 hrs; format: functional, cell-based; conditions: HCT-116
[13] = target: T1, DNA topoisomerase 1 (Homo sapiens); test: Inhibition of topoisomerase 1 (unknown origin) assessed as attenuation of enzyme-mediated relaxation of supercoiled pBR322 DNA after 30 mins by agarose gel electrophoresis
[14] = Cell cycle arrest in p53 knockout human HCT116 cells assessed as accumulation in sub G1 phase at 1 uM after 24 to 48 hrs relative to control; format: functional, cell-based; conditions: HCT-116
[15] = tested on: Calf thymus DNA; test: Binding affinity to calf thymus DNA assessed as decrease in extinction of absorption maxima at 5 uM by spectrophotometric analysis; format: nucleic-acid assay; set-up: scale not given: the % may be the effect or the level left; conditions: Bos taurus
[16] = tested on: HCT-116; test: Induction of apoptosis in human HCT116 cells assessed as viable cells at 1 uM after 48 hrs by Annexin V-FITC/propidium iodide staining based assay (reference value: 95 +/- 2%); format: functional
[17] = tested on: HCT-116; test: Induction of apoptosis in p53 knockout human HCT116 cells assessed as viable cells at 1 uM after 48 hrs by Annexin V-FITC/propidium iodide staining based assay (reference value: 93 +/- 3%); format: functional
[18] = tested on: HCT-116; test: Induction of apoptosis in human HCT116 cells assessed as late apoptotic cells at 1 uM after 48 hrs by Annexin V-FITC/propidium iodide staining based assay (reference value: 1 +/- 1%); format: functional
[19] = tested on: PBL; test: Cytotoxicity against human PBL assessed as reduction in cell viability after 72 hrs by MTT assay; format: cell-based
[20] = tested on: HCT-116; test: Induction of apoptosis in human HCT116 cells assessed as necrotic cells at 1 uM after 48 hrs by Annexin V-FITC/propidium iodide staining based assay (reference value: 2 +/- 1%); format: functional
[21] = Cell cycle arrest in p53 knockout human HCT116 cells assessed as accumulation in G2/M phase at 1 uM after 24 hrs; format: functional, cell-based; conditions: HCT-116
[22] = tested on: P388; test: Antitumor activity against mouse P388 cells transplanted in DBA2/BDF1 mouse assessed as mean life span at 50 mg/kg, ip dosed daily for 5 days (reference value: 9.7 +/- 1.1 day); format: functional
[23] = tested on: HCT-116; test: Induction of apoptosis in human HCT116 cells assessed as viable cells at 1 uM after 24 hrs by Annexin V-FITC/propidium iodide staining based assay (reference value: 95 +/- 2%); format: functional
[24] = tested on: HCT-116; test: Induction of apoptosis in human HCT116 cells assessed as late apoptotic cells at 1 uM after 24 hrs by Annexin V-FITC/propidium iodide staining based assay (reference value: 1 +/- 1%); format: functional
[25] = target: T1, DNA topoisomerase 1 (Homo sapiens); test: Poisoning activity at topoisomerase 1 (unknown origin) using 3'-[32P]dGTP labelled 117bp oligonucleotide assessed as induction of DNA cleavage incubated for 20 mins by SDS-PAGE analysis
[26] = Cell cycle arrest in human HCT116 cells assessed as accumulation in sub G1 phase at 1 uM after 24 to 48 hrs relative to control; format: functional, cell-based; conditions: HCT-116
[27] = tested on: Calf thymus DNA; test: Binding affinity to calf thymus DNA at 5 uM by fluorescence assay; format: nucleic-acid assay; conditions: Bos taurus
[28] = Toxicity in ip dosed DBA2/BDF1 mouse transplanted with mouse P388 cells dosed daily for 5 days; format: organism-based; conditions: in vivo
[29] = Cell cycle arrest in human HCT116 cells assessed as accumulation in G2/M phase at 1 uM after 24 hrs; format: functional, cell-based; conditions: HCT-116
[30] = tested on: HCT-116; test: Induction of apoptosis in p53 knockout human HCT116 cells assessed as early apoptotic cells at 1 uM after 24 hrs by Annexin V-FITC/propidium iodide staining based assay (reference value: 2 +/- 1%); format: functional
[31] = HCT-116, 48 h, read-out: Activity

DNA topoisomerase 2-alpha (Homo sapiens), sequence (P11388 whole entry): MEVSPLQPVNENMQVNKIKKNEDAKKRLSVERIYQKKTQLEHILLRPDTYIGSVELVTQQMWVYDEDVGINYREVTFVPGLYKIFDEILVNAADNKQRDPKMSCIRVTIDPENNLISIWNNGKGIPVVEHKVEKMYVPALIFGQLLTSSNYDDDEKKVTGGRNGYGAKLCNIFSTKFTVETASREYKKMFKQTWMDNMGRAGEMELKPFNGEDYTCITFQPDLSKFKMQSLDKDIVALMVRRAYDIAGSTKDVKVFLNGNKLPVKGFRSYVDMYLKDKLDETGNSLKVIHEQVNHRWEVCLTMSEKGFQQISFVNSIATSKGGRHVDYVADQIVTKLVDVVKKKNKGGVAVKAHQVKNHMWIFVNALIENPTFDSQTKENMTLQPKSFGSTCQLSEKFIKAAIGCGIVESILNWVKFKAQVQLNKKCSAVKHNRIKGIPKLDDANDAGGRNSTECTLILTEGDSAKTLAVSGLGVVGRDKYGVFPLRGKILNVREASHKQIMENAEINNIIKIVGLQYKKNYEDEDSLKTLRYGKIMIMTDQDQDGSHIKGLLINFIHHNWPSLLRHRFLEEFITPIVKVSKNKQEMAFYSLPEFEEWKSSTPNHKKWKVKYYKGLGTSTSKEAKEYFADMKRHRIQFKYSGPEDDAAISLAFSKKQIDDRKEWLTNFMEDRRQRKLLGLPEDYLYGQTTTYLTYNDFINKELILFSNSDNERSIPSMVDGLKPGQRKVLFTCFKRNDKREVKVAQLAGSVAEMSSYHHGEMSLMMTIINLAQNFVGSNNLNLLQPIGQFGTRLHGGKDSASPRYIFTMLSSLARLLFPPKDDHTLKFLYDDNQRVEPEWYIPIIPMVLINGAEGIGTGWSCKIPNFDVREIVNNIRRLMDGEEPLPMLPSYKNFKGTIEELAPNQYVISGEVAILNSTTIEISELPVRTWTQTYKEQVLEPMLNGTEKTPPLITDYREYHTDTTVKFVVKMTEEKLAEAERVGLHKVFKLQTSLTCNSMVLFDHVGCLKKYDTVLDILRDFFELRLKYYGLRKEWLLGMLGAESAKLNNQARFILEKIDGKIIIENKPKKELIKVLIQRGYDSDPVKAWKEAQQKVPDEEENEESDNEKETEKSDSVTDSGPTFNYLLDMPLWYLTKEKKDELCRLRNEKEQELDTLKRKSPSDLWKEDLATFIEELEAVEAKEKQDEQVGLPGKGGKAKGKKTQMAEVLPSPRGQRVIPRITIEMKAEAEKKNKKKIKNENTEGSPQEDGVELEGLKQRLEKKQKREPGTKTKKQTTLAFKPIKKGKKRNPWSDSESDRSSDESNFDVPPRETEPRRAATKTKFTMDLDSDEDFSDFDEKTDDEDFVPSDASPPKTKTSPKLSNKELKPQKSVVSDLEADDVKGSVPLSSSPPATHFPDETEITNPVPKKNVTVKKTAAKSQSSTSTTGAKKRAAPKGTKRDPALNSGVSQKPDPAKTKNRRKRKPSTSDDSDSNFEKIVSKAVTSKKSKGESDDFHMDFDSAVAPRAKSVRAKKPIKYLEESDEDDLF

CS(=O)(=O)O.Cc1oc2c(O)c3c(c(O)c2c1C(=O)N1CC[C@@H](N)C1)C(=O)c1ccccc1C3=O
Activity [1]: Active | Activity [2]: inactive | Activity [3]: Active | Activity [4]: 122% | Activity [5]: Active | Activity [6]: inactive | Activity [7]: Active | Activity [8]: Active | Activity [9]: Active | Activity [10]: inactive | pIC50 [11]: 5.89 | Activity [12]: Active | Activity [13]: Dose-dependent effect | Activity [14]: > 70% | Activity [15]: 36% | Activity [16]: Active | Activity [17]: Active | Activity [18]: Active | Activity [19]: Non-toxic | Activity [20]: Active | Activity [21]: Active | Activity [22]: 17.3 days | Activity [23]: Active | Activity [24]: Active | Activity [25]: inactive | Activity [26]: > 70% | Activity [27]: Active | MTD at 120 h [28]: 50 mg/kg | Activity [29]: Active | Activity [30]: Active

CS(=O)(=O)O.Cc1oc2c(O)c3c(c(O)c2c1C(=O)N1CC[C@H](N)C1)C(=O)c1ccccc1C3=O
Activity [1]: Active | Activity [2]: inactive | Activity [3]: 45% | Activity [4]: 214% | Activity [5]: Active | Activity [6]: inactive | Activity [7]: Active | Activity [8]: 20% | Activity [9]: Active | Activity [10]: inactive | pIC50 [11]: 5.85 | Activity [12]: Active | Activity [13]: Dose-dependent effect | Activity [14]: > 70% | Activity [15]: 36% | viability at 1 µM [16, 31]: 12% | viability at 1 µM [17, 31]: 7% | Activity [18]: 13% | Activity [19]: Non-toxic | Activity [20]: 30% | Activity [21]: Active | Activity [22]: 6.5 days | viability at 1 µM ([23]; HCT-116, 24 h, read-out: Activity): 58% | Activity [24]: 12% | Activity [25]: inactive | Activity [26]: > 70% | Activity [27]: Active | MTD at 120 h [28]: 30 mg/kg | Activity [29]: Active | Activity [30]: 17%
